Counter-ions that a name gives are not always drawn. Like-named read-outs stand apart in the source and are kept apart here.
Target: T1, LmxCLK1 (Leishmania mexicana, UniProt E9AMP2)
T1 sequence (E9AMP2 1-422): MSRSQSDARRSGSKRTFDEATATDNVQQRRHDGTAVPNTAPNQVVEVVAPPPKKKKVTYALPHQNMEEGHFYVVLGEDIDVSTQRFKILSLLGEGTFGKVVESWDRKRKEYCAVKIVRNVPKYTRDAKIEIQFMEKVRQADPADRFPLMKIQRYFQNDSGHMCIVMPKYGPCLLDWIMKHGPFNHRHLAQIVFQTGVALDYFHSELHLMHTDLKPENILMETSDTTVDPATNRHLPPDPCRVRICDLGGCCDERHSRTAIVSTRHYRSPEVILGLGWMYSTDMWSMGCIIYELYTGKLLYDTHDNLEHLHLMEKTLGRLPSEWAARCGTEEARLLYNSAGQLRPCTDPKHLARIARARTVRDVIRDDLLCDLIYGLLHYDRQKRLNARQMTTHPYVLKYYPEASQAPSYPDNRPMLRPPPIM
Test: biochemical
Type: binding

[1] = DSF, 10 µM compound, 2 µM LmxCLK1, Run 1
[2] = DSF, 10 µM compound, 2 µM LmxCLK1, Run 2
[3] = DSF, 10 µM compound, 2 µM LmxCLK1, mean of two runs
[4] = DSF, 10 µM compound, 2 µM LmxCLK1, Run 1, read-out: ΔTm Run 1
[5] = DSF, 10 µM compound, 2 µM LmxCLK1, Run 2, read-out: ΔTm Run 2
[6] = DSF, 10 µM compound, 2 µM LmxCLK1, mean of two runs, read-out: ΔTm Average

Compound | ΔTm Run 1 [1] | ΔTm Run 2 [2] | ΔTm Average [3] | ΔTm at 10 µM [4] | ΔTm at 10 µM [5] | ΔTm at 10 µM [6] | also measured
Cc1c(NC(=O)OC[C@@H]2COCCN2)cn2ncnc(Nc3ccc4c(cnn4Cc4cccc(F)c4)c3)c12 [AC480 (BMS-599626)] | 0.4 °C | 0.2 °C | 0.3 °C | – | – | – | –
O=C(c1ccc(/C=C/c2n[nH]c3ccccc23)cc1)N1CCNCC1 [KW-2449] | – | – | – | 0.4 °C | 0.4 °C | 0.4 °C | –
NC(=O)c1ncn([C@@H]2O[C@H](CO)[C@@H](O)[C@H]2O)c1N [Acadesine] | – | – | – | -0.2 °C | -0.2 °C | -0.2 °C | –
Cc1ccc(-n2nc(C(C)(C)C)cc2NC(=O)Nc2ccc(OCCN3CCOCC3)c3ccccc23)cc1 [BIRB 796 (Doramapimod)] | 0.5 °C | 0.4 °C | 0.4 °C | – | – | – | –
O=c1cc(CN2CCOCC2)occ1OCCCCCSc1ccnc2cc(C(F)(F)F)ccc12 [EHT 1864] | 0.1 °C | -0.3 °C | -0.1 °C | – | – | – | –
CC1=C(C(=O)Nc2cc3cn[nH]c3cc2F)C(c2ccc(C(F)(F)F)cc2)CC(=O)N1 (stereo not drawn) [GSK429286A] | – | – | – | 0.1 °C | 0.2 °C | 0.1 °C | –
CC(O)C(=O)O.CC(O)C(=O)O.CN1CCN(c2ccc3nc(-c4c(N)c5c(F)cccc5[nH]c4=O)[nH]c3c2)CC1 [Dovitinib (TKI-258) Dilactic Acid] | -0.5 °C | -0.4 °C | -0.4 °C | – | – | – | –
COc1ccc(CNC(=O)Nc2ncc([N+](=O)[O-])s2)cc1 [AR-A014418] | 0.0 °C | -0.1 °C | -0.1 °C | – | – | – | –
CNC(=O)c1cc(Oc2ccc(NC(=O)Nc3ccc(Cl)c(C(F)(F)F)c3)cc2)ccn1 [Sorafenib Tosylate] | 0.3 °C | – | 0.3 °C | – | 0.2 °C | – | –
C1=N/C2=N/c3ccc(OCCN4CCCC4)c(c3)COC/C=C/COCc3cccc(c3)C(=C1)N2 [Pacritinib (SB1518)] | 0.2 °C | 0.1 °C | 0.2 °C | – | – | – | –
Cc1cc(O)c2c(c1)C(=O)c1cccc(O)c1C2=O [Chrysophanic Acid] | – | – | – | 0 °C | -0.2 °C | -0.1 °C | –
C=CC(=O)N1CCC[C@@H](n2nc(-c3ccc(Oc4ccccc4)cc3)c3c(N)ncnc32)C1 [Ibrutinib (PCI-32765)] | 0.2 °C | -0.2 °C | 0.0 °C | – | – | – | –
Cc1cc(C(=O)NOCCO)c(Nc2ccc(I)cc2F)n(C)c1=O [AZD8330] | – | – | – | 0.5 °C | 0.2 °C | 0.3 °C | –
Cc1ccccc1-n1c(Cn2ncc3c(N)ncnc32)nc2cccc(C)c2c1=O [PIK-293] | 0.1 °C | -0.2 °C | -0.1 °C | – | – | – | –
COC(=O)Nc1ccc(-c2nc(N3CCOCC3)c3cnn(C4CCN(C(=O)OC)CC4)c3n2)cc1 [WYE-354] | -0.1 °C | -0.2 °C | -0.1 °C | – | – | – | –
CCc1cncnc1N1CCN(Cc2nc3ccc(C(F)(F)F)cc3[nH]2)CC1 [PF-4708671] | – | – | – | – | – | – | ΔTm Average: -0.1; ΔTm Run 1: 0.1 °C; ΔTm Run 2: -0.2
COc1ccc2cc(-c3nc(-c4ccc([S+](C)[O-])cc4)[nH]c3-c3ccncc3)ccc2c1 (stereo not drawn) [Tie2 kinase inhibitor] | – | – | – | – | – | – | ΔTm Average: 0.1 °C; ΔTm Run 1: 0.1 °C; ΔTm Run 2: 0 °C
CCn1c2ccccc2c2cc(Nc3ccnc(NCCCN4CCOCC4)n3)ccc21 [EHop-016] | -0.1 °C | 0.0 °C | 0.0 °C | – | – | – | –
C=CC(=O)Nc1ccc2ncnc(Nc3cccc(Br)c3)c2c1 [PD168393] | 0.3 °C | -0.7 °C | -0.2 °C | – | – | – | –
[H]/N=C(/N)N/C(=N/[H])NCCc1ccccc1 [Phenformin HCl] | – | – | – | 0 °C | -0.4 °C | -0.2 °C | –
Cc1nc(NC(=O)N2CCC[C@H]2C(N)=O)sc1-c1ccnc(C(C)(C)C(F)(F)F)c1 [BYL719] | – | – | – | 0.1 °C | 0.2 °C | 0.2 °C | –
CN1CCN(CCOc2cc(OC3CCOCC3)c3c(Nc4c(Cl)ccc5c4OCO5)ncnc3c2)CC1 [Saracatinib (AZD0530)] | 0.8 °C | 0.7 °C | 0.7 °C | – | – | – | –
CN1CCN(c2nc(C3=C(c4c[nH]c5ccccc45)C(=O)NC3=O)c3ccccc3n2)CC1 [Sotrastaurin] | – | – | – | 1.2 °C | 0.9 °C | 1 °C | –
Cc1cc(C)nc(NS(=O)(=O)c2ccc(NC(=S)NC(=O)COc3ccc(Br)cc3Cl)cc2)n1 [ZCL278] | 0.1 °C | -0.1 °C | 0.0 °C | – | – | – | –

Compound | ΔTm Run 1 [1] | ΔTm Run 2 [2] | ΔTm Average [3] | ΔTm at 10 µM [4] | ΔTm at 10 µM [5] | ΔTm at 10 µM [6] | also measured
COc1ccc(-c2ccc3c(N4CCOCC4)nc(N4C[C@@H](C)O[C@@H](C)C4)nc3n2)cc1CO [KU-0063794] | – | – | – | 0.1 °C | 0.1 °C | 0.1 °C | –
CN(C)CCSSCCNC(=O)C1CCN(C(=O)CSc2ccc(Cl)cc2)CC1 [6H05] | – | – | – | – | – | – | ΔTm Average: -0.1; ΔTm Run 1: 0.1 °C; ΔTm Run 2: -0.2
COCCNCc1ccc(-c2cc3nccc(Oc4ccc(NC(=S)NC(=O)Cc5ccc(F)cc5)cc4F)c3s2)nc1 [MGCD-265] | – | – | – | 0 °C | -0.1 °C | -0.1 °C | –
Cc1cc(NC(=O)c2cccc(NC(=O)/C=C/CN(C)C)c2)ccc1Nc1nccc(-c2cccnc2)n1 [JNK-IN-8] | – | – | – | 0.2 °C | -0.5 °C | -0.1 °C | –
CCn1c(N)c(C(=O)NC)c(=O)c2ccc(C#C[C@@](C)(O)COC)nc21 [SAR131675] | 0.0 °C | -0.1 °C | 0.0 °C | – | – | – | –
Cc1cc([C@@H](C)Nc2ccccc2C(=O)O)c2nc(N3CCOCC3)cc(=O)n2c1 [AZD6482] | – | – | – | 0.1 °C | -0.1 °C | 0 °C | –
PHT-427 | 0.4 °C | 0.3 °C | 0.3 °C | – | – | – | –
CN(C)CCOc1ccc(-c2nc(-c3ccncc3)c(-c3ccc4c(c3)CC/C4=N\O)[nH]2)cc1 [SB590885] | – | – | – | -0.1 °C | -0.4 °C | -0.2 °C | –
CCc1cc(Nc2nccc(-c3c(-c4ccc(OC)c(C(=O)Nc5c(F)cccc5F)c4)nc4ccccn34)n2)c(OC)cc1N1CCC(N2CCN(S(C)(=O)=O)CC2)CC1 [GSK1904529A] | – | – | – | – | – | – | ΔTm Average: 0.2 °C; ΔTm Run 1: 0.2 °C; ΔTm Run 2: 0.1 °C
C=CC(=O)Nc1cc(Nc2nccc(-c3cn(C)c4ccccc34)n2)c(OC)cc1N(C)CCN(C)C [AZD9291] | – | – | – | 0 °C | -0.3 °C | -0.2 °C | –
CCc1nc(-c2cccc(C)c2)c(-c2ccnc(NC(=O)c3ccccc3)c2)s1 [TAK-715] | – | – | – | 0.5 °C | 0.8 °C | 0.7 °C | –
CC(=O)Nc1nc(C)c(-c2ccc(Cl)c(S(=O)(=O)NCCO)c2)s1 [PIK-93] | – | – | – | – | – | – | ΔTm Average: 0 °C; ΔTm Run 1: 0 °C; ΔTm Run 2: -0.1
CC(=O)c1c(C)c2cnc(Nc3ccc(N4CCNCC4)cn3)nc2n(C2CCCC2)c1=O.Cl [Palbociclib (PD-0332991) HCl] | 0.6 °C | 0.4 °C | 0.5 °C | – | – | – | –
Cl.Cl.NC1(c2ccc(-c3nc4ccn5c(=O)[nH]nc5c4cc3-c3ccccc3)cc2)CCC1 [MK-2206 2HCl] | -0.1 °C | -0.1 °C | -0.1 °C | – | – | – | –
CCn1c(=O)c(-c2cc[nH]n2)cc2c(C)nc(N)nc21 [SAR245409 (XL765)] | 0.1 °C | -0.2 °C | 0.0 °C | – | – | – | –
Cc1cc(Nc2ncc(Cl)c(Nc3ccccc3S(=O)(=O)C(C)C)n2)c(OC(C)C)cc1C1CCNCC1 [LDK378] | – | – | – | 0.4 °C | 0 °C | 0.2 °C | –
CCN(CC)CCNC(=O)c1c(C)[nH]c(/C=C2\C(=O)Nc3ccc(F)cc32)c1C [Sunitinib Malate] | – | – | – | 0.3 °C | 0.2 °C | 0.2 °C | –
CCN(CC)CCCCNc1ncc2cc(-c3cc(OC)cc(OC)c3)c(NC(=O)NC(C)(C)C)nc2n1 [PD173074] | – | – | – | 0.1 °C | -0.1 °C | 0 °C | –
O=c1cc(N2CCOCC2)oc2c(-c3cccc4c3sc3ccccc34)cccc12 [NU7441 (KU-57788)] | 0.0 °C | -0.2 °C | -0.1 °C | – | – | – | –
COc1ccc(C(=O)Nc2sc3c(c2C(N)=O)CCCC3)cc1OC [TCS 359] | 0.0 °C | 0.0 °C | 0.0 °C | – | – | – | –
O=C(Nc1cccc(Cl)c1)Nc1ncc(CCNc2ncnc3ccsc23)s1 [SNS-314 Mesylate] | – | – | – | 3.6 °C | 8.3 °C | 5.9 °C | –
CC(C)(C)c1cnc(CSc2cnc(NC(=O)C3CCNCC3)s2)o1 [SNS-032 (BMS-387032)] | 0.2 °C | 0.0 °C | 0.1 °C | – | – | – | –
CC(=O)Nc1cccc(-n2c(=O)n(C3CC3)c(=O)c3c(Nc4ccc(I)cc4F)n(C)c(=O)c(C)c32)c1 [Trametinib (GSK1120212)] | – | – | – | 0 °C | -0.5 °C | -0.2 °C | –

— article PMC7619385 (ACS infectious diseases, 2025)
